Here are results for one compound from paper PMC12084609, “Structural insights into small-molecule agonist recognition and activation of complement receptor C3aR” (The EMBO Journal, 2025).

Numbering of substitutions follows the chain as printed. pIC50: −log10 of the molar value. Where “and” joins values, the source holds several entries; their conditions need not be identical. Equal entries are not always repeated.

Holding throughout (assay type): cell-based
For one assay, the target named is T1, C3aR M106^3.36A (Homo sapiens, UniProt Q16581, M106A).
T1 construct: expressed in transfected cells; host or cells: HEK293T
T1 sequence (Q16581 1-482 M106A): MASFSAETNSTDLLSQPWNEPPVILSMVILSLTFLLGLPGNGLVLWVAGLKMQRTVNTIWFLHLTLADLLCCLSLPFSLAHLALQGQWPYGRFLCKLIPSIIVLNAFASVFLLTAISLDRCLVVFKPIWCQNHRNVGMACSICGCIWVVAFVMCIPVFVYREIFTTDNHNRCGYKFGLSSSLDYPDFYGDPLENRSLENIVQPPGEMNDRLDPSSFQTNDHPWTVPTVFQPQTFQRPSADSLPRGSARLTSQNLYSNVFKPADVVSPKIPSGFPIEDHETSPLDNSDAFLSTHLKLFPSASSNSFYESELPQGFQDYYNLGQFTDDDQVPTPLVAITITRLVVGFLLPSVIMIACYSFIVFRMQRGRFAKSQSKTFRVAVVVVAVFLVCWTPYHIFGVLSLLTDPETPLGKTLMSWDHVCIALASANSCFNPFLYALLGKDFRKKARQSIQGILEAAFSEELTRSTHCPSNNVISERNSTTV
Put plainly: GloSensor-based cAMP assay, C3aR mutant M106A. As to the method:
(§1) HEK293T cells were seeded on 6-well plates (NEST) and transfected with pGlosensor™-22F plasmids (Promega) and pcDNA3.1 plasmids encoding C3aR or its mutants an with N-terminal FLAG tag. After 48 h, cells were detached with Accutase solution (Sigma-Aldrich) and washed with PBS, and resuspended in assay buffer (CO2-independent medium with 0.5 mg mL^−1D-luciferin). 100,000–200,000 cells were seeded on 96-well white bottom plates (SPL) and incubated at 37 °C for 45 min followed by 45 min incubation at room temperature. After 90 min of incubation, basal luminescence signals were recorded. In total, 25 μl of test ligand with various concentrations and 1 μM Forskolin (Sigma-Aldrich) were treated to the cells and luminescence signals were measured by Tristar 2 LB 942 multimode reader (Berthold). […] Relative luminescence unit (%) was calculated with the signal of wells treated with vehicle as 0% and the signal of wells treated with 1 μM Forskolin as 100% (DiRaddo et al, [2014]). Nonlinear regression was performed using a three-parameter logistic equation.
In general terms: Changes in cAMP serve as a functional read-out for many G protein-coupled receptors.

The target in another assay is T2, C3aR L82^2.64A (Homo sapiens, UniProt Q16581, L82A).
T2 construct: expressed in transfected cells; host or cells: HEK293T
T2 sequence (Q16581 1-482 L82A): T1 sequence (Q16581 1-482 M106A) with L82A, A106M
As to the kind of experiment: GloSensor-based cAMP assay, C3aR mutant L82A. The procedure:
as §1

In the next assay the target is T3, C3aR S26^1.35A (Homo sapiens, UniProt Q16581, S26A).
T3 construct: expressed in transfected cells; host or cells: HEK293T
T3 sequence (Q16581 1-482 S26A): T1 sequence (Q16581 1-482 M106A) with S26A, A106M
Put plainly: GloSensor-based cAMP assay, C3aR mutant S26A. As to the method: as §1

[1] abbreviates: Dunnett's multiple comparisons test, WT minus mutant.

Take `Cc1cc(C(c2ccc(Cl)cc2)c2ccc(Cl)cc2)sc1C(=O)N[C@@H](CCCNC(=N)N)C(=O)O` [JR14a, reference compound]: on C3aR M106^3.36A (setting [1]), the “Mean Diff. of pIC50, WT vs. M106A” value is reported as -0.207. Also, the pIC50 (in general, the negative decadic logarithm of the IC50, by convention in mol/L) against C3aR M106^3.36A (IC50, M106^3.36A, dose-response plot) was 8.49; against C3aR M106^3.36A (pIC50 (Replicate), M106^3.36A, individual replicates), 8.44 and 8.13 and 8.89; against C3aR L82^2.64A (IC50, L82^2.64A, dose-response plot) it was 8.68; at C3aR L82^2.64A (pIC50 (Replicate), L82^2.64A, individual replicates), 8.81 and 8.47 and 8.78; against C3aR L82^2.64A (pIC50 ± SEM (Mean), L82^2.64A, mean of independent experiments) it was 8.69; on C3aR S26^1.35A (IC50, S26^1.35A, dose-response plot), 8.25. Besides, the negative logarithm of the IC50 (pIC50) was 8.79 and 8.34 and 8.13 against C3aR S26^1.35A (pIC50 (Replicate), S26^1.35A, individual replicates); 8.42 on C3aR S26^1.35A (pIC50 ± SEM (Mean), S26^1.35A, mean of independent experiments). Besides, the “ΔpIC50 ± SE of Diff.” value is given as 0.21 ± 0.09 at C3aR M106^3.36A (M106^3.36A relative to WT C3aR), 0.40 ± 0.14 at C3aR L82^2.64A (L82^2.64A relative to WT C3aR) and 0.14 ± 0.07 at C3aR S26^1.35A (S26^1.35A relative to WT C3aR). In addition, the “Mean Diff. of pIC50, WT vs. L82A” value at C3aR L82^2.64A (setting [1]) was -0.402. The remaining activity at 1 µM is 9.36% on C3aR L82^2.64A (L82A, Log[JR14a (M)] -6, single replicates, read-out: cAMP response (% Forskolin)) and 7.75% at C3aR S26^1.35A (S26A, Log[JR14a (M)] -6, single replicates, read-out: cAMP response (% Forskolin)). In addition, the remaining activity at 0.1 µM was found to be 8.92% on C3aR L82^2.64A (L82A, Log[JR14a (M)] -7, single replicates, read-out: cAMP response (% Forskolin)) and 8.58% at C3aR S26^1.35A (S26A, Log[JR14a (M)] -7, single replicates, read-out: cAMP response (% Forskolin)). Further, the remaining activity at 0.01 µM at C3aR L82^2.64A (L82A, Log[JR14a (M)] -8, single replicates, read-out: cAMP response (% Forskolin)) was found to be 34.1%. In addition, the remaining activity at 0.001 µM on C3aR L82^2.64A (L82A, Log[JR14a (M)] -9, single replicates, read-out: cAMP response (% Forskolin)) turned out to be 62.6%. Also, the remaining activity at 0.0001 µM worked out at 93.2% at C3aR L82^2.64A (L82A, Log[JR14a (M)] -10, single replicates, read-out: cAMP response (% Forskolin)) and 91.9% at C3aR S26^1.35A (S26A, Log[JR14a (M)] -10, single replicates, read-out: cAMP response (% Forskolin)). For the same compound, the remaining activity at 10 pM at C3aR L82^2.64A (L82A, Log[JR14a (M)] -11, single replicates, read-out: cAMP response (% Forskolin)) was determined as 106%; at C3aR S26^1.35A (S26A, Log[JR14a (M)] -11, single replicates, read-out: cAMP response (% Forskolin)) it was 96.7%. Also, the “Mean Diff. of pIC50, WT vs. S26A” value on C3aR S26^1.35A (setting [1]) was -0.137.
